Measurements taken from patent US20180111913A1, “SUBSTITUTED BENZOFURAN DERIVATIVES AS NOVEL ANTIMYCOBACTERIAL AGENTS” (priority 2015, published 2018).
In brackets after ≈: the same amount, converted by molar mass.

What follows are compounds tested against Mtb Pks13-TE domain (wild-type) (Mycobacterium tuberculosis, UniProt I6X8D2) (assay: biochemical). Conditions: Mtb Pks13-TE domain; mean ± s.d. of triplicates; read-out: IC50.
Assay type: biochemical

Chain of Mtb Pks13-TE domain (wild-type) (I6X8D2 1451-1733): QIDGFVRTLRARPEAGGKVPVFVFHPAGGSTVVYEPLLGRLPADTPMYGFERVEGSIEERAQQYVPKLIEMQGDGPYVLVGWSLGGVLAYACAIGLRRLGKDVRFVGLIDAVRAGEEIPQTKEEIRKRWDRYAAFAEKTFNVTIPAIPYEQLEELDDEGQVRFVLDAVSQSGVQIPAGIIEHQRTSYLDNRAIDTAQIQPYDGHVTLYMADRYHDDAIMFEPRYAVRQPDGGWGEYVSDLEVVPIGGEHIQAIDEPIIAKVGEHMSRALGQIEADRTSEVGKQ

Compound | IC50
CCOC(=O)c1c(-c2ccc(O)cc2)oc2ccc(O)c(CN3CCCCC3)c12 [compound 22] | 0.17 ± 0.02 µM

Same assay, conditions: Pks13-TE, 20 μM 4-MUH; read-out: IC50

Compound | IC50
CNC(=O)c1c(-c2ccccc2)oc2ccc(O)c(CCN3CCN(CCO)CC3)c12 [compound 157] | > 40 µM
CCOC(=O)c1c(-c2ccccc2)oc2ccc(O)c(CN3CCCCC3=O)c12 [compound 52] | > 20 µM
CNC(=O)c1c(-c2ccccc2)oc2ccc(O)c(CCNC3CCC3)c12 [compound 147] | 3.5 µM
CNC(=O)c1c(-c2ccccc2)oc2ccc(O)c(CCN3CCNC(=O)C3)c12 [compound 139] | > 40 µM
CCOC(=O)c1c(-c2ccccc2)oc2ccc(O)c(CCCNCc3ccoc3)c12 [compound 255] | 2.1 µM
CNC(=O)c1c(-c2ccccc2)oc2ccc(O)c(CCCN3CC(O)C(O)C3)c12 (stereo not drawn) [compound 163] | > 40 µM
CNC(=O)c1c(-c2ccccc2)oc2ccc(O)c(CCN3CCCCC3CCO)c12 (stereo not drawn) [compound 156] | > 40 µM
CNC(=O)c1c(-c2ccccc2)oc2ccc(O)c(CCN3CCCC(C(F)(F)F)C3)c12 (stereo not drawn) [compound 233] | > 10 µM
CCOC(=O)c1c(-c2ccccc2)oc2ccc(O)c(CCN3CCC4(COC4)C3)c12 [compound 264] | 2.5 µM
CC(C)NCCc1cc(O)cc2oc(-c3ccc(F)cc3)c(CO)c12 [compound 76] | > 20 µM
CNC(=O)c1c(-c2ccccc2)oc2ccc(O)c(CCN3CCC(O)CC3)c12 [compound 152] | > 40 µM
CCOC(=O)c1c(-c2ccc(F)cc2)oc2cc(O)cc(CC[N+](C)(C)C)c12 [compound 75] | > 20 µM
CCOC(=O)c1c(-c2ccc(F)cc2)oc2cc(O)cc(CCN)c12 [compound 242] | > 20 µM
CCOC(=O)c1c(-c2ccccc2)oc2ccc(O)c(CCCN3CCCC3CCO)c12 (stereo not drawn) [compound 170] | 4.3 µM
CCOC(=O)c1c(-c2ccccc2)oc2ccc(O)c(CCNC(C(=O)O)C(F)(F)F)c12 (stereo not drawn) [compound 247] | > 40 µM
CNC(=O)c1c(-c2ccccc2)oc2ccc(O)c(CCN3CCC(CO)CC3)c12 [compound 153] | > 40 µM
CNC(=O)c1c(-c2ccccc2)oc2ccc(O)c(CCCN3CCC3)c12 [compound 271] | 7 µM
CCOC(=O)c1c(-c2ccccc2)oc2ccc(O)c(CCCN3CC(O)C3)c12 [compound 197] | 7.5 µM
CNC(=O)c1c(-c2ccccc2)oc2ccc(O)c(CCN3CCC(CO)(CBr)C3)c12 (stereo not drawn) [compound 258] | 2.5 µM
CNC(=O)c1c(-c2ccccc2)oc2ccc(O)c(CCN[C@H](C)Cc3cnc[nH]3)c12 [compound 260] | 4 µM
CNC(=O)c1c(-c2ccccc2)oc2ccc(O)c(CCCNCC(C)c3ncco3)c12 (stereo not drawn) [compound 196] | > 20 µM
CNC(=O)c1c(-c2ccccc2)oc2ccc(O)c(CCN[C@@H](Cc3cnc[nH]3)C(=O)NC)c12 [compound 259] | 1 µM
CCOC(=O)c1c(-c2ccccc2)oc2ccc(O)c(CCC3CCNCC3)c12 [compound 176] | > 40 µM
CCOC(=O)c1c(-c2ccc(F)cc2)oc2cc(O)cc(CCNC(=O)C3CCCN3)c12 (stereo not drawn) [compound 226] | > 40 µM
CCOC(=O)c1c(-c2ccccc2)oc2ccc(O)c(CCN[C@@H](CC(N)=O)C(=O)O)c12 [compound 246] | 20 µM

Compound | IC50
CCOC(=O)c1c(-c2ccccc2)oc2ccc(O)c(CCN3CCC(CCCCO)C3)c12 (stereo not drawn) [compound 178] | 2 µM
CN(C)C(=O)c1c(-c2ccc(O)cc2)oc2cc(O)cc(CCCN3CCC3)c12 [compound 208] | 4 µM
CCOC(=O)c1c(-c2ccccc2)oc2ccc(O)c(CCN3CC4COCC4C3)c12 (stereo not drawn) [compound 266] | 10 µM
CCOC(=O)c1c(-c2ccccc2)oc2ccc(O)c(CCN3CCC(CCCC(N)=O)C3)c12 (stereo not drawn) [compound 187] | 0.5 µM
CCOC(=O)c1c(-c2ccccc2)oc2ccc(O)c(CCNC3CCOCC3)c12 [compound 241] | > 20 µM
CNC(=O)c1c(-c2ccccc2)oc2ccc(O)c(CCN3CCS(=O)(=O)CC3)c12 [compound 138] | > 40 µM
CNC(=O)c1c(-c2ccccc2)oc2ccc(O)c(CCNCC3CCCO3)c12 (stereo not drawn) [compound 252] | 1.6 µM
CCOC(=O)c1c(-c2ccccc2)oc2ccc(O)c(CCCC3CCCC3)c12 [compound 236] | > 10 µM
CCOC(=O)c1c(-c2ccc(F)cc2)oc2cc(O)cc(CCNCC(O)CO)c12 (stereo not drawn) [compound 79] | > 20 µM
CCOC(=O)c1c(-c2ccc(F)cc2)oc2cc(O)cc(CCNC(=O)C(C)N)c12 (stereo not drawn) [compound 81] | > 40 µM
CCOC(=O)c1c(-c2ccccc2)oc2ccc(O)c(CCCN3CCCC(CO)C3)c12 (stereo not drawn) [compound 169] | > 40 µM
CNC(=O)c1c(-c2ccccc2)oc2ccc(O)c(CCN(C(C)C)C(C)C)c12 [compound 140] | > 40 µM
CCOC(=O)c1c(-c2ccc(F)cc2)oc2cc(O)cc(CCNC3CCC(O)CC3)c12 (stereo not drawn) [compound 225] | > 40 µM
Cc1nc2c(CN3CCC(C)CC3)c(O)ccc2[nH]1 [compound 9] | 10 µM
CCOC(=O)c1c(-c2ccccc2)oc2ccc(O)c(CCN3CC(C#N)C3)c12 [compound 227] | > 20 µM
CNC(=O)c1c(-c2ccccc2)oc2ccc(O)c(CCNC3CCCCC3)c12 [compound 145] | 10 µM
CNC(=O)c1c(-c2ccccc2)oc2ccc(O)c(CCN3CCCCC3)c12 [compound 143] | > 20 µM
CNC(=O)c1c(-c2ccccc2)oc2ccc(O)c(CCN3CCCCC3CO)c12 (stereo not drawn) [compound 155] | > 40 µM
CCOC(=O)c1c(-c2ccccc2)oc2ccc(O)c(CN3CCC(F)(F)CC3)c12 [compound 119] | 0.8 µM
Cc1nc2c(CN3CCCC3)c(O)ccc2[nH]1 [compound 111] | 10 µM
CCOC(=O)c1c(-c2ccccc2)oc2ccc(O)c(CCN3[C@H](C)CCC[C@@H]3C)c12 [compound 150] | > 40 µM
CNC(=O)c1c(-c2ccccc2)oc2ccc(O)c(CCCN3CCC4(CC3)CC(=O)C4)c12 [compound 207] | 10 µM
CCOC(=O)c1c(-c2ccccc2)oc2ccc(O)c(CCN3CCSC3C)c12 (stereo not drawn) [compound 177] | 1 µM
CNC(=O)c1c(-c2ccccc2)oc2ccc(O)c(CCN3CC(CO)(CBr)C3)c12 [compound 257] | 1.25 µM
CNC(=O)c1c(-c2ccccc2)oc2ccc(O)c(CCN3CCCCC3C(F)(F)F)c12 (stereo not drawn) [compound 237] | > 20 µM

Compound | IC50
CCOC(=O)c1c(-c2ccccc2)oc2ccc(O)c(CCNC(CO)Cc3cnc[nH]3)c12 (stereo not drawn) [compound 256] | 1.5 µM
CNC(=O)c1c(-c2ccccc2)oc2ccc(O)c(CCNc3ccccc3)c12 [compound 144] | > 40 µM
CCOC(=O)c1c(-c2ccc(F)cc2)oc2cc(O)cc(CCNCCN)c12 [compound 80] | > 40 µM
CNC(=O)c1c(-c2ccccc2)oc2ccc(O)c(CCN3CCCC(CO)C3)c12 (stereo not drawn) [compound 154] | > 20 µM
CCOC(=O)c1c(-c2ccccc2)oc2ccc(O)c(CCCN3CCCC3CCC(=O)NC)c12 (stereo not drawn) [compound 184] | > 10 µM
CNC(=O)c1c(-c2ccccc2)oc2ccc(O)c(CCCNCc3ncco3)c12 [compound 190] | > 40 µM
CCOC(=O)c1c(-c2ccc(O)cc2)oc2ccc(O)c(CN3CCCCC3)c12 [compound 22] | 0.19 µM
CNC(=O)c1c(-c2ccccc2)oc2ccc(O)c(CCN3CCC(CCO)CC3)c12 [compound 158] | 20 µM
CNC(=O)c1c(-c2ccccc2)oc2cc(O)cc(CN3CCC(O)CC3)c12 [compound 68] | > 20 µM
CN(C)CCc1c(O)ccc2oc(-c3ccc(O)cc3)c(C(=O)N(C)C)c12 [compound 210] | 12 µM
CCOC(=O)c1c(-c2ccccc2)oc2ccc(O)c(CCCN3CCC[C@H]3C)c12 [compound 180] | 1.9 µM
CCOC(=O)c1c(-c2ccccc2)oc2ccc(O)c(CCN3CCC4(CC3)COC4)c12 [compound 267] | > 40 µM
CNC(=O)c1c(-c2ccccc2)oc2ccc(O)c(CCN[C@@H](Cc3cnc[nH]3)C(=O)OC)c12 [compound 250] | 2.4 µM
CNC(=O)c1c(-c2ccccc2)oc2ccc(O)c(CCN3CCC(C(F)(F)F)CC3)c12 [compound 232] | > 20 µM
CNC(=O)c1c(-c2ccccc2)oc2ccc(O)c(CCCN3CCCC4(CC(=O)C4)C3)c12 [compound 194] | > 40 µM
CCOC(=O)c1c(-c2ccccc2)oc2ccc(O)c(CCN3CCCOC3)c12 [compound 193] | 5 µM
CNC(=O)c1c(-c2ccc(F)cc2)oc2cc(O)cc(CCN[C@@H](Cc3ccco3)C(=O)O)c12 [compound 262] | > 40 µM
CCOC(=O)c1c(-c2ccc(F)cc2)oc2cc(O)cc(CCNC(=O)OCc3ccccc3)c12 [compound 243] | > 40 µM
CNC(=O)c1c(-c2ccccc2)oc2ccc(O)c(CCC3CCOC3=O)c12 (stereo not drawn) [compound 240] | > 40 µM
CCOC(=O)c1c(-c2ccccc2)oc2ccc(O)c(CCCN3CC(CO)C3)c12 [compound 198] | 5 µM
CCOC(=O)c1c(-c2ccccc2)oc2ccc(O)c(CCCN3CCCC3C/C=C/C(=O)NC)c12 (stereo not drawn) [compound 181] | 2.5 µM
CCOC(=O)c1c(-c2ccccc2)oc2ccc(O)c(CCCN3CCSC3)c12 [compound 173] | 5 µM
CCOC(=O)c1c(-c2ccc(F)cc2)oc2cc(O)cc(CCNC(CO)CO)c12 [compound 78] | 13 µM
CCOC(=O)c1c(-c2ccccc2)oc2ccc(O)c(CCNC3CCOC3)c12 (stereo not drawn) [compound 254] | 2.7 µM

Same assay, conditions: Pks13-TE; read-out: IC50 (μM), given as NB / NI

Compound | IC50
CCOC(=O)c1c(-c2ccccc2)oc2ccc(OC)c(CC3CCCCC3)c12 [compound 15] | > 20 µM

These compounds were tested on Mtb strain mc^27000 (assay: microbe, parasite or virus in culture). Conditions: Mtb mc^27000, liquid medium, 96-well plates; read-out: MIC.
Assay type: cell-based, Mycobacterium tuberculosis

Compound | MIC
CNC(=O)c1c(-c2ccccc2)oc2ccc(O)c(CCCNCc3nonc3C)c12 [compound 195] | >40 µM
CC(C)NC(=O)c1c(-c2ccc(O)cc2)oc2ccc(O)c(CCCN3CCC3)c12 [compound 214] | <0.08 µM
CCOC(=O)c1c(-c2ccccc2)oc2ccc(O)c(CC(=O)NC3CCC3)c12 [compound 131] | 7.2 µM (≈ 2.83 µg/mL)

Same assay, conditions: Mycobacterium tuberculosis, Mtb mc^27000, liquid medium, 96-well plates; read-out: MIC

Compound | MIC
CNC(=O)c1c(-c2ccccc2)oc2cc(O)cc(CN3CCOCC3)c12 [compound 94] | > 20 µM
CNC(=O)c1c(-c2ccccc2)oc2cc(O)cc(CNCCO)c12 [compound 96] | 9 µM (≈ 3.06 µg/mL)
